US12685725B2, “Pridopidine for the treatment of mitochondrial-associated diseases and disorders and endoplasmic reticulum (ER) stress” (PRILENIA NEUROTHERAPEUTICS LTD., priority 2019, dated 2026)
Where two headings read alike, the source gives them in different places.

Legend:
[1] = test system: WT and YAC128 cortical and striatal neurons; details: 24 h
Protocol: (§1) Mitochondrial membrane potential (Δψm) was assessed in cortical and striatal neurons using the positively changed fluorescent probe TMRM (tetramethylrhodamine methyl ester) (Thermo Fisher Sci., catalog no: T668) and in cortical/striatal co-cultures and lymphoblasts using an equivalent probe, TMRE (tetramethylrhodamine ethyl ester) (Abcam, catalog no. ab113852).
Under these conditions, retention of TMRM by mitochondria was studied to estimate changes in Δψm. […] TMRM release was calculated based in the differences in fluorescence before and after addition of oligomycin/FCCP.

[2] = test system: S1R-dependence of eIF2α phosphorylation in HEK 293 cells; details: 8 h
Protocol: HEK 293 cells were transfected with plasmids carrying Cas9 and 3 different guide RNAs (gRNA) targeting human Sigma1-R and a control gRNA. Ten days after transfection and selection with puromycin, cell lysates of the pools of selected cells were tested for S1R knockout by immunoblotting. […] Subsequent cloning by dilution produced, after 4 weeks, several clones with complete knockout of Sigma1-R for each gRNA.
Cells were lysed in PBS containing 1% Triton X-100, 0.5% sodium deoxycholate with protease inhibitors and centrifuged to pellet insoluble aggregates, debris and nuclei. Phosphatase inhibitor cocktail 2 and 3 and 10 mM 0-glycerol phosphate were added to the lysis buffer to inhibit phosphatases for detection of phosphorylated proteins. Supernatants were separated from pellets and incubated in loading buffer for 5 min at 100° C., pellets were incubated for 10 min at 100° C. After SDS-PAGE and transfer to nitrocellulose membrane, blocking was done in 5% low-fat milk and 0.1% Tween-20 in PBS for 1 h. Incubation with the primary antibody was overnight at 4° C. and after three washes in 0.1% Tween-20 in PBS, incubation with the appropriate secondary antibody was for 1 h at room temperature. After washing, enhanced chemiluminescence assay was performed and the membrane was exposed and quantified in a Bio-Rad ChemiDocXRS Imaging System (Bio-Rad, Hercules, CA).

[3] = test system: Htt96Q aggregates in S1R+/+ and S1R−/− HEK 293 cells; details: 24 h
Protocol: HEK 293 cells were grown on 60 mm plates and transfected for the expression of myc-Htt96Q. Cells were collected 24 hours post-transfection. After washing with 1×PBS cells were resuspended in 100 μl of 1×PBS+ protease inhibitor cocktail. Sonication was done in a sonic bath for 3×10 sec (amp5-6), leaving on ice for 30 sec between the sonications. Cell debris were removed by centrifugation at 16,000×g for 15 min and protein concentration was measured in the supernatant using the BCA method. Samples containing 50 μg total protein were taken and the volume adjusted to 100 μl with 1% SDS in PBS. After incubation for 5 min at 100° C. sample duplicates were loaded on the slots of a nitrocellulose membrane pre-wet with 1% SDS in PBS in a dot-blotting apparatus. Slots were washed twice with 1 ml 1% SDS in PBS and the membrane was transferred to 5% milk blocking solution. Immunoblotting was performed as described above.

[4] = test system: STHdh^Q7/7 cells expressing Htt96Q-mCherry or Htt20Q-mCherry
Protocol: (§2) Transfections of HEK 293 cells were carried out according to the calcium phosphate method. STHdh^Q7/7 cells are a murine striatal cell line with a stable knock-in of the full-length wild type (WT) human Htt containing a polyglutamine stretch of 7 glutamines (Trettel et al. 2000). […] No cell line used is listed as a commonly misidentified cell line. Cell lines were not authenticated. To reduce any risk of cross-contamination they were grown for a limited number of passages. Transient transfections of NIH 3T3 and STHdh^Q7/7 cells were performed using an MP-100 Microporator (Digital Bio) or ViaFect™ Transfection Reagent (Cat.No. E4981) (Promega), according to the manufacturer's protocols.
Briefly, cells grown for 24 h after transfection on coverslips in 24-well plates were fixed with 3% paraformaldehyde, followed by blocking with 50 mM glycine in PBS and normal goat IgG in PBS/2% BSA. The cells were incubated with primary antibodies for 1 h, washed and incubated for 30 min with secondary antibodies, followed by washes. Nuclei were stained with 4′,6-diamidino-2-phenylindole (Cat.No. F6057) (Sigma). Confocal microscopy was done on a Zeiss laser scanning confocal microscope (LSM 510; Carl Zeiss, Jena, Germany) as described previously. ImageJ was used to quantify fluorescence intensity in images of treated individual cells compared to untreated cells with and without Htt96Q-mCherry aggregates and to calculate Mander's coefficients for colocalization studies.

Y128 neurons = details: 5 μM given 24 h before 0.1 mM H2O2 for 6 h, p=0.001
Protocol: as §1
TMRE assay: Primary neurons and lymphoblasts in suspension were cultured in 6-well plates.

[5] = test system: eIF2α phosphorylation in HEK 293 cells; details: for concentration of maximal effect on reducing eIF2α phosphorylation: cells expressing Htt96Q
Protocol: as §2
Cells were lysed in PBS containing 1% Triton X-100, 0.5% sodium deoxycholate with protease inhibitors and centrifuged to pellet insoluble aggregates, debris and nuclei. Phosphatase inhibitor cocktail 2 and 3 and 10 mM […] phosphate were added to the lysis buffer to inhibit phosphatases for detection of phosphorylated proteins. Supernatants were separated from pellets and incubated in loading buffer for 5 min at 100° C., pellets were incubated for 10 min at 100° C. After SDS-PAGE and transfer to nitrocellulose membrane, blocking was done in 5% low-fat milk and 0.1% Tween-20 in PBS for 1 h. Incubation with the primary antibody was overnight at 4° C. and after three washes in 0.1% Tween-20 in PBS, incubation with the appropriate secondary antibody was for 1 h at room temperature. After washing, enhanced chemiluminescence assay was performed and the membrane was exposed and quantified in a Bio-Rad ChemiDocXRS Imaging System (Bio-Rad, Hercules, CA).

SMILES: CCCN1CCC(c2cccc(S(C)(=O)=O)c2)CC1 [Pridopidine, 4-[3-(methylsulfonyl)phenyl]-1-propyl-piperidine]
- mitochondrial membrane potential (MMP), TMRM release ([1]; WT striatal neurons, 1 μM, p=0.0013): also increases MMP
- mitochondrial membrane potential (MMP), TMRM release ([1]; Y128 high mHTT, cortical neurons, 0.1 μM, p=0.015): significantly increases MMP
- mitochondrial membrane potential (MMP), TMRM release ([1]; Y128 high mHTT, cortical neurons, 1 μM, p=0.0201): significantly increases MMP
- mitochondrial membrane potential (MMP), TMRM release ([1]; Y128 high mHTT, striatal neurons, 0.1 μM, p=0.0407): significantly increases MMP
- mitochondrial membrane potential (MMP), TMRM release ([1]; Y128 high mHTT, striatal neurons, 1 μM, p=0.0017): significantly increases MMP
- mitochondrial membrane potential (MMP), TMRM release ([1]; Y128 low mHTT, cortical neurons, 0.1 μM, p=0.0008): significantly increases MMP
- mitochondrial membrane potential (MMP), TMRM release ([1]; Y128 low mHTT, cortical neurons, 1 μM, p=0.0303): significantly increases MMP
- mitochondrial membrane potential (MMP), TMRM release ([1]; Y128 low mHTT, striatal neurons, 0.1 μM, p=0.0274): significantly increases MMP
- eIF2α-P levels ([2]; S1R expressing control clone expressing Htt96Q): significantly reduces eIF2α-P levels
- concentration of maximal effect on eIF2α phosphorylation ([2]; control clone expressing myc-Htt96Q): 3 µM
- increase of the amount of Htt96Q in SDS-insoluble aggregates ([3]; S1R+/+ cells): up to 35%
- effect on Htt96Q in SDS-insoluble aggregates ([3]; S1R−/− cells): abolished
- H2a-GFP accumulation, of the untreated control ([4]; cells positive for mHtt (Htt96Q-mCherry) aggregates): 40%
- ER stress (H2a-GFP relative intensity), dose dependence ([4]; cells with Htt96Q-mCherry aggregates, from 0.03 to 150 μM): significantly reduces ER stress in a dose-dependent manner
- H2a-GFP levels ([4]; cells without aggregates or cells expressing Htt20Q-mCherry): does not alter H2a-GFP levels
- percent of cells that show visible Htt96Q-mCherry aggregates ([4]; expression of Htt96Q-mCherry for 24 h): unchanged
- H2O2-induced loss of MMP (TMRE) (Y128 neurons): completely reverts this H2O2-induced loss of MMP
- reduction of eIF2α-phosphorylation levels compared to the untreated control ([5]; HEK293 cells expressing Htt96Q, 24 h, dose-dependent 0 to 3 μM): 3.6 fold
- phosphorylation of eIF2α ([5]; Htt96Q-expressing cells, high doses of 30 and 150 μM): no effect
- concentration of maximal effect on reducing eIF2α phosphorylation ([5]; after 8 hours): 3 µM
- concentration of maximal effect on reducing eIF2α phosphorylation ([5]; after 24 hours): 3 µM
- eIF2α phosphorylation ([5]; cells expressing WT Htt20Q): unaffected by pridopidine treatment
- TG-induced ER stress as measured by eIF2α-P ([5]; cells expressing myc-Htt20Q, 2 μg/ml thapsigargin): down to the levels of untreated cells
